Patent US8247349B2, “Enhanced abscisic acid analog and fertilizer performance” (Valent BioSciences Corporation, priority 2007, dated 2012)
Like-named read-outs stand apart in the source and are kept apart here.

Key:
[1] = test system: tomato plant leaves; settings: in vivo
[2] = test system: tomato plant leaves; experiment: Phytotoxicity study: number of injured leaves after foliar application; settings: for Number of injured leaves: 25 ppm ABA analog alone, one foliar application; for Phytotoxicity (in words): 25 ppm alone, 10-day experimental period
[3] = test system: tomato leaf transpiration; experiment: Tomato leaf transpiration inhibition after foliar application (LI-1600 Steady State Porometer); format: in vivo, Tomato (variety: Rutgers)

SMILES: N.N.O=S(=O)(O)O [(NH4)2SO4, ammonium sulfate]
- Phytotoxicity (in words) [1]: showed phytotoxicity

SMILES: C#CC1(C)CC(=O)C=C(C)C1(O)C=CC(C)=CC(=O)O (centres unmarked) [PBI-524, 8′ acetylene-ABA, acid]
- Number of injured leaves ([2]; 5 days after treatment): 0.0
- Number of injured leaves ([2]; 10 days after treatment): 0.0
- Phytotoxicity (in words) [2]: did not show any phytotoxicity

SMILES: NC(N)=O [Urea, urea]
- Transpiration rate (% of control) ([3]; 1 mM alone, 1 day after treatment): 103 % of control
- Transpiration rate (% of control) ([3]; 1 mM alone, 2 days after treatment): 98 % of control
- Transpiration rate (% of control) ([3]; 1 mM alone, 3 days after treatment): 98 % of control
- Transpiration rate (% of control) ([3]; 1 mM alone, 4 days after treatment): 100 % of control
- Transpiration rate (% of control) ([3]; 10 mM alone, 1 day after treatment): 101 % of control
- Transpiration rate (% of control) ([3]; 10 mM alone, 2 days after treatment): 103 % of control
- Transpiration rate (% of control) ([3]; 10 mM alone, 3 days after treatment): 106 % of control
- Transpiration rate (% of control) ([3]; 10 mM alone, 4 days after treatment): 101 % of control
- Transpiration rate (% of control) ([3]; 100 mM alone, 1 day after treatment): 102 % of control
- Transpiration rate (% of control) ([3]; 100 mM alone, 2 days after treatment): 102 % of control
- Transpiration rate (% of control) ([3]; 100 mM alone, 3 days after treatment): 107 % of control
- Transpiration rate (% of control) ([3]; 100 mM alone, 4 days after treatment): 102 % of control
- Effect on tomato leaf transpiration (in words) ([3]; 1, 10 or 100 mM alone, 4-day experimental period): Neither urea nor ammonium nitrate at any of three tested concentrations significantly reduced tomato leaf transpiration

SMILES: C#CC1(C)CC(=O)C=C(C)C1(O)/C=C/C(C)=C\C(=O)OC (centres unmarked) [PBI-429, 8′ acetylene-ABA methyl ester]
- Number of injured leaves ([2]; 5 days after treatment): 0.0
- Number of injured leaves ([2]; 10 days after treatment): 0.0
- Phytotoxicity (in words) [2]: did not show any phytotoxicity
- Transpiration rate (% of control) ([3]; 25 ppm alone, 1 day after treatment): 60 % of control
- Transpiration rate (% of control) ([3]; 25 ppm alone, 2 days after treatment): 42 % of control
- Transpiration rate (% of control) ([3]; 25 ppm alone, 3 days after treatment): 64 % of control
- Transpiration rate (% of control) ([3]; 25 ppm alone, 4 days after treatment): 63 % of control
- Transpiration rate (% of control) ([3]; 25 ppm alone, 7 days after treatment): 87 % of control
- Transpiration rate (% of control), Average ([3]; 25 ppm alone, average over days 1-7): 63 % of control
